Inhibition data for 29 compounds are collected here from patent US11225480B2, “Malic enzyme inhibitors” (SUN PHARMA ADVANCED RESEARCH COMPANY LTD, priority 2019, dated 2022).

Structures can show the parent of a compound that is named as a salt.

This experiment concerns the target T1, human ME3 enzyme (Homo sapiens, UniProt Q16798).
T1 sequence (Q16798 1-604): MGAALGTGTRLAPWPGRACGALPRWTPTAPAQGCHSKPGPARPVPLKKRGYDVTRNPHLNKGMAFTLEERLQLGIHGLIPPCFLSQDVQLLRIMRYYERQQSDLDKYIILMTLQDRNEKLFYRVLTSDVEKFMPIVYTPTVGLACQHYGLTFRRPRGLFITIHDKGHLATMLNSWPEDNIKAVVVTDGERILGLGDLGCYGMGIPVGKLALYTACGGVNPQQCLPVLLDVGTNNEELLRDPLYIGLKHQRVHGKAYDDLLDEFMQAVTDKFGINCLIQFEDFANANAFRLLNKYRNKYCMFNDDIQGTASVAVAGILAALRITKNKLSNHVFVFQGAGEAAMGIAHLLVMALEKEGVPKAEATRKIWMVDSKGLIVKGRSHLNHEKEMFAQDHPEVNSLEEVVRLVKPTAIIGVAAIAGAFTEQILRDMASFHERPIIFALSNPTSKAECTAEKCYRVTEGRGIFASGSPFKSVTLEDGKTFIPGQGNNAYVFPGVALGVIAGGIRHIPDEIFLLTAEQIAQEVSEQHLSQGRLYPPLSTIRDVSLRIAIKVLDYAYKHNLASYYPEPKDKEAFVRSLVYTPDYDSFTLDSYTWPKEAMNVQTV
Put plainly: ME3 inhibition assay (diaphorase/resazurin coupled fluorescence). The experiment is classed as biochemical. As to conditions: 10 μM compound concentration; read-out: Malic Enzyme 3 % inhibition (10 μM). The protocol:
ME3 catalyzes the oxidative decarboxylation of malate to pyruvate with conversion of the co-factor β-NADP+ to NADPH. In the fluorescence assay, a coupled reaction is set up wherein an enzyme, Diaphorase, utilizes NADPH generated by ME3, to convert the dye resazurin to a fluorescent molecule resorufin.
The enzyme activity inhibition assay is set up in a 200 μL final reaction volume in a 96-well plate. As per the experimental design, 2 μL of the test compounds at 100× the desired concentration (10 μM) in DMSO were added to the respective wells with 178 μL of assay buffer (50 mM Tris-HCl pH 7.5, 10 mM MnCl2, 3 mM L-malate, 50 μM Resazurin and 0.025 mg/ml Diapharose). The 96-well plate was incubated on a plate shaker at room temperature for 15 minutes protected from light. The well contents were gently mixed by adding 10 μL of 20 nM human ME3 enzyme to the wells and the plate was incubated on a shaker at room temperature for 5 minutes protected from light. Suitable enzyme only and no enzyme controls were included in the experiment. The enzyme reaction was started by adding 10 μL of 1 mM D-NADP+. The reaction was gently mixed and the plate was initially left on a shaker at room temperature for ˜7 minutes protected from light. Later, the plate was incubated without shaking at room temperature for 3 hours. At the end of 3 hours, the fluorescence of the wells was measured at excitation 540 nm and emission 600 nm.
A general note: Resazurin is reduced to fluorescent resorufin, in cell work by metabolically active cells.
As for `O=C(c1nc2ccccc2[nH]1)N1CCN(c2ccc(O)cn2)CC1` [I.86, (1H-Benzo-imidazol-2-yl)-[4-(5-hydroxy-pyridin-2-yl)-piperazin-1-yl]-methanone], the inhibition (commonly the drop in the measured response relative to a control, in per cent) at 10 µM was above 90%.

On to `O=C(/C=C/c1ccc([N+](=O)[O-])cc1)N1CCN(c2ccc(O)cn2)CC1` [I.77, (E)-1-[4-(5-Hydroxy-pyridin-2-yl)-piperazin-1-yl]-3-(4-nitro-phenyl)-propenone], for which the inhibition at 10 µM was above 90%.

Turning to `CC(C)Cc1ccc(CCC(=O)N2CCN(c3ccc(O)cn3)CC2)cc1` [I.90, 1-[4-(5-Hydroxy-pyridin-2-yl)-piperazin-1-yl]-3-(4-isobutyl-phenyl)-propan-1-one], the inhibition at 10 µM was above 90%.

For `COCCN1CCC(C(=O)N2CCN(c3ccc(O)cc3)CC2)CC1` [I.7, [4-(4-Hydroxy-phenyl)-piperazin-1-yl]-[1-(2-methoxy-ethyl)-piperidin-4-yl]-methanone], the inhibition at 10 µM was above 90%. Under `O=C(CSc1ccc([N+](=O)[O-])cn1)N1CCN(c2ccc(O)cn2)CC1` [I.97, 1-[4-(5-hydroxy-pyridin-2-yl)-piperazin-1-yl]-2-(5-nitro-pyridin-2-ylsulfanyl)-ethanone] stands above 90%; under `O=C(CCc1ccc(Br)cc1)N1CCN(c2ccc(O)cn2)CC1` [I.103, 3-(4-Bromo-phenyl)-1-[4-(5-hydroxy-pyridin-2-yl)-piperazin-1-yl]-propan-1-one], above 90%. The same measure for `N#Cc1cc(N2CCN(C(=O)c3cc(-c4ccccc4)nc(-c4ccccc4)c3)CC2)ccc1O` [I.37, 5-[4-(2,6-diphenylpyridine-4-carbonyl)piperazin-1-yl]-2-hydroxy-benzonitrile]: 50 to 69%; for `O=C(c1cc(-c2ccccc2)nc(N2CCOCC2)c1)N1CCN(c2ccc(O)cc2)CC1` [I.33, [4-(4-Hydroxy-phenyl)-piperazin-1-yl]-(2-morpholino-6-phenyl-4-pyridyl)-methanone]: above 90%. Under `O=C(c1cc(-c2ccccc2)nc(-c2ccccc2)c1)N1CCN(c2ccc(O)cc2)CC1` [I.20, (2,6-diphenyl-4-pyridyl)-[4-(4-hydroxyphenyl)piperazin-1-yl]methanone] stands above 90%; under `O=C(O)c1cc(N2CCN(C(=O)Cc3ccccc3)CC2)ccc1O` [I.32, 2-hydroxy-5-(4-phenylacetyl-piperazin-1-yl)-benzoic acid], 70 to 89%; under `O=C(O)C1C2CCC(O2)C1C(=O)N1CCN(c2ccc(O)cn2)CC1` (centres unmarked) [I.105, 3-[4-(5-Hydroxy-pyridin-2-yl)-piperazine-1-carbonyl]-7-oxa-bicyclo-[2.2.1]heptane-2-carboxylic acid], above 90%. As to `O=C(c1cnc2ccccc2c1)N1CCN(c2ccc(O)cc2)CC1` [I.24, [4-(4-Hydroxy-phenyl)-piperazin-1-yl]-quinolin-3-yl-methanone], the inhibition at 10 µM is above 90%.

`CCCCn1cc(C(=O)N2CCN(c3ccc(O)cc3)CC2)c2ccccc21` [I.18, (1-Butyl-1H-indol-3-yl)-[4-(4-hydroxy-phenyl)-piperazin-1-yl]-methanone]: the inhibition at 10 µM was above 90%. The same measure for `O=C(O)c1cc(N2CCN(C(=O)c3cc(-c4ccccc4)nc(-c4ccccc4)c3)CC2)ccc1O` [I.38, 5-[4-(2,6-Diphenyl-pyridine-4-carbonyl)-piperazin-1-yl]-2-hydroxy-benzoic acid]: above 90%; for `O=C(c1ccnc(-c2ccccc2)c1)N1CCN(c2ccc(O)cc2)CC1` [I.34, [4-(4-Hydroxy-phenyl)-piperazin-1-yl]-(2-phenyl-4-pyridyl)-methanone]: above 90%; for `O=C(c1cc(-c2ccccc2)cc(-c2ccccc2)c1)N1CCN(c2ccc(O)cc2)CC1` [I.27, (3,5-Diphenyl-phenyl)-[4-(4-hydroxy-phenyl)-piperazin-1-yl]methanone]: above 90%. The same measure for `COCCOc1ccc(CCC(=O)N2CCN(c3ccc(O)cn3)CC2)cc1` [I.114, 1-[4-(5-Hydroxy-pyridin-2-yl)-piperazin-1-yl]-3-[4-(2-methoxy-ethoxy)-phenyl]-propan-1-one dihydro-chloride]: above 90%; for `O=C(CCc1ccc2ccccc2c1)N1CCN(c2ccc(O)cc2)CC1` [I.23, 1-[4-(4-Hydroxy-phenyl)-piperazin-1-yl]-3-naphthalen-2-yl-propan-1-one]: above 90%; for `O=C(C(=O)N1CCN(c2ccc(O)cn2)CC1)c1c[nH]c2ccccc12` [I.106, 1-[4-(5-Hydroxy-pyridin-2-yl)-piperazin-1-yl]-2-(1H-indol-3-yl)-ethane-1,2-dione]: above 90%.

`O=C(CCC12CC3CC(CC(C3)C1)C2)N1CCN(c2ccc(O)cn2)CC1` [I.98, 3-(1-Adamantyl)-1-[4-(5-hydroxy-2-pyridyl)-piperazin-1-yl]propan-1-one]: the inhibition at 10 µM was above 90%. Under `O=C(c1cccc2c1ccn2Cc1ccccc1)N1CCN(c2ccc(O)cc2)CC1` [I.26, (1-benzylindol-4-yl)-[4-(4-hydroxyphenyl)piperazin-1-yl]methanone] stands above 90%; under `O=C(c1cccc(-c2cccc3[nH]ccc23)c1)N1CCN(c2ccc(O)cn2)CC1` [I.113, [4-(5-hydroxypyridin-2-yl)-piperazin-1-yl]-[3-(1H-indol-4-yl)phenyl]methanone], above 90%. For the compound `Cc1cn(-c2cc(C(=O)N3CCN(c4ccc(O)cn4)CC3)cc(C(F)(F)F)c2)cn1` [I.81, [4-(5-Hydroxy-pyridin-2-yl)-piperazin-1-yl]-[3-(4-methyl-imidazol-1-yl)-5-trifluoro-methylphenyl]-methanone], the inhibition at 10 µM was above 90%.

Take `O=C(c1cccc2[nH]ccc12)N1CCN(c2ccc(O)cc2)CC1` [I.30, [4-(4-Hydroxy-phenyl)-piperazin-1-yl]-(1H-indol-4-yl)-methanone]: the inhibition at 10 µM is above 90%. Consider `O=C(CCc1ccc(O)cc1)N1CCN(c2ccc(O)cn2)CC1` [I.100, 3-(4-Hydroxy-phenyl)-1-[4-(5-hydroxy-pyridin-2-yl)-piperazin-1-yl]-propan-1-one], for which the inhibition at 10 µM was above 90%. Consider `O=C(c1cn(Cc2ccccc2)c2ccccc12)N1CCN(c2ccc(O)cc2)CC1` [I.15, (1-Benzyl-1H-indol-3-yl)-[4-(4-hydroxy-phenyl)-piperazin-1-yl]-methanone], for which the inhibition at 10 µM was above 90%. Turning to `COc1ccc(CCC(=O)N2CCN(c3ccc(O)cn3)CC2)cc1` [I.101, 3-(4-Methoxy-phenyl)-1-[4-(5-hydroxy-pyridin-2-yl)-piperazin-1-yl]-propan-1-one hydrochloride], the inhibition at 10 µM was above 90%. Turning to `O=C(c1n[nH]c2ccccc12)N1CCN(c2ccc(O)cc2)CC1` [I.8, [4-(4-Hydroxy-phenyl)-piperazin-1-yl]-(1H-indazol-3-yl)-methanone], the inhibition at 10 µM is above 90%.

As to `CN(CC(=O)N1CCN(c2ccc(O)cn2)CC1)S(=O)(=O)c1cccc2cccnc12` [I.89, quinoline-8-sulfonic acid {2-[4-(5-hydroxypyridin-2-yl)-piperazin-1-yl]-2-oxo-ethyl}-methylamide], the inhibition at 10 µM is above 90%.
